# Results: patent publication US20170281727A1, “THERAPEUTIC OR PROPHYLACTIC AGENT FOR ITCHING SKIN DISEASES” (Toray Industries, Inc., priority 2014, published 2017)
# Entries after “also recorded” stand apart in the source; their conditions may differ.
# Columns and labels:
# Assay type in all cases: cell-based, human
# hBD-1 = assay: mRNA expression analysis of hBD-1 by real-time PCR in NHEKs; settings: LL-37 20 μg/ml, 48 hours after stimulation, vs control without LL-37
# Procedure: (§1) Normal human epidermal keratinocytes (NHEKs) were cultured according to a protocol provided by Lonza. NHEKs were cultured in a 12-well tissue culture plate and, in the growth phase (80% confluence), LL-37 (20 μg/ml) was added alone, or LL-37 (20 μg/ml) and the peptide SLIGRL (SEQ ID NO:2, 100 μM) were added, to the cells. The peptide SLIGRL is a peptide frequently used as a PAR2 agonist, and it is known that activation of PAR2 induces promotion of expression of TSLP in keratinocytes (Wilson et al, Cell, 2013: 155, 285-295). Total RNA was extracted 48 hours after the addition of LL-37, and mRNA expression analysis was carried out by real-time PCR. The culture supernatant was collected, and subjected to analysis of the protein expression level by ELISA. • (3) Analysis of Expression of mRNA of Each Gene
# (§2) The transcription level of each gene was analyzed by quantitative real-time PCR. […] According to the manufacturer's instructions, quantitative real-time PCR was carried out using an Applied Biosystems 7900HT Fast Real-time PCR system (Applied Biosystems) with SYBR Premix Ex Taq (Takara). […] The amount of each mRNA was normalized against the amount of mRNA of RPS18, and finally expressed as the ratio to the mRNA in an untreated control.
# TSLP = assay: mRNA expression analysis of TSLP by real-time PCR in NHEKs
# Procedure: as §1, §2
# Artemin = assay: mRNA expression analysis of Artemin by real-time PCR in NHEKs; settings: LL-37 20 μg/ml, 48 hours after stimulation, vs control without LL-37
# Procedure: as §1, §2
# hBD-2 = assay: mRNA expression analysis of hBD-2 by real-time PCR in NHEKs; settings: LL-37 20 μg/ml, 48 hours after stimulation, vs control without LL-37
# Procedure: as §1, §2
# NGF = assay: mRNA expression analysis of NGF by real-time PCR in NHEKs; settings: LL-37 20 μg/ml, 48 hours after stimulation, vs control without LL-37
# Procedure: as §1, §2
# Sema3A [1] = assay: Sema3A protein in NHEK culture supernatant by ELISA; settings: NHEKs, LL-37 20 μg/ml, 48 hours after stimulation, vs control without LL-37
# Procedure: as §1
# The expression level of each protein was analyzed by ELISA. The amount of Sema3A in the culture supernatant was measured using an Enzyme-linked Immunosorbent Assay Kit (USCN Life Science) according to the manufacturer's instructions.
# KAL1 = assay: mRNA expression analysis of KAL1 by real-time PCR in NHEKs; settings: LL-37 20 μg/ml, 48 hours after stimulation, vs control without LL-37
# Procedure: as §1, §2
# Sema3A [2] = assay: mRNA expression analysis of Sema3A by real-time PCR in NHEKs; settings: LL-37 20 μg/ml, 48 hours after stimulation, vs control without LL-37
# Procedure: as §1, §2
substance,measurement,setting,value
"LL-37: human cathelicidin antimicrobial peptide, LLGDFFRKSKEKIGKEFKRIVQRIKDFLRNLVPRTES, SEQ ID NO:1 (listed as Homo sapiens)",mRNA expression of hBD-1,hBD-1,Promotion; also recorded: increases
same,mRNA expression of TSLP,"TSLP; LL-37 20 μg/ml alone, 48 hours after stimulation, vs control without LL-37",Suppression; also recorded: decreases
same,mRNA expression of TSLP induced by SLIGRL,"TSLP; LL-37 20 μg/ml plus SLIGRL 100 μM (PAR2 agonist), 48 hours",suppression; also recorded: decreased
same,mRNA expression of Artemin,Artemin,suppressed; also recorded: decreases
same,mRNA expression of hBD-2,hBD-2,Promotion; also recorded: increases
same,mRNA expression of NGF,NGF,suppressed; also recorded: decreases
same,amount of Sema3A protein in the culture supernatant,Sema3A [1],increase
same,mRNA expression of KAL1,KAL1,promoted; also recorded: increases
same,mRNA expression of Sema3A,Sema3A [2],promoted; also recorded: increases
